Measured values reported in US10526352B2, “Tricyclic benzoxaborole compounds and uses thereof” (GlaxoSmithKline Intellectual Property (No.2) Limited, priority 2013, dated 2020).
pIC50: −log10 of the molar value. Like-named read-outs stand apart in the source and are kept apart here.

Tests used:
P. aeruginosa PA01 = experiment: General antimicrobial activity assay (CLSI broth microdilution); assay type: cell-based, Pseudomonas aeruginosa
Description: (§1) Whole-cell antimicrobial activity was determined by broth microdilution using the Clinical and Laboratory Standards Institute (CLSI) recommended procedure, Document M7-A7, “Methods for Dilution Susceptibility Tests for Bacteria that Grow Aerobically”.

A. baumannii ATCC 17978 = experiment: as above; assay type: cell-based, Acinetobacter baumannii
Description: as §1

[1] = system: M. tuberculosis clinical isolates; experiment: MIC against clinical strains (BACTEC MGIT 960 System); assay type: cell-based; conditions: Mycobacterium tuberculosis
E. coli K12 tolC::Tn10 = experiment: General antimicrobial activity assay (CLSI broth microdilution); assay type: cell-based, Escherichia coli
Description: as §1

E. coli K12 = experiment: as above; assay type: cell-based, Escherichia coli
Description: as §1

[2] = system: M. tuberculosis standard strain Mtb H37Rv; experiment: MIC determination against mycobacteria (resazurin, Middlebrook 7H9); assay type: cell-based, Mycobacterium tuberculosis; conditions: read-out: Mtb H37Rv MIC (B)
Mtb LeuRS = Mtb LeuRS (Mycobacterium tuberculosis, UniProt P9WFV1); experiment: biochemical; parameters: species or system M. tuberculosis
Chain of Mtb LeuRS (P9WFV1 whole entry): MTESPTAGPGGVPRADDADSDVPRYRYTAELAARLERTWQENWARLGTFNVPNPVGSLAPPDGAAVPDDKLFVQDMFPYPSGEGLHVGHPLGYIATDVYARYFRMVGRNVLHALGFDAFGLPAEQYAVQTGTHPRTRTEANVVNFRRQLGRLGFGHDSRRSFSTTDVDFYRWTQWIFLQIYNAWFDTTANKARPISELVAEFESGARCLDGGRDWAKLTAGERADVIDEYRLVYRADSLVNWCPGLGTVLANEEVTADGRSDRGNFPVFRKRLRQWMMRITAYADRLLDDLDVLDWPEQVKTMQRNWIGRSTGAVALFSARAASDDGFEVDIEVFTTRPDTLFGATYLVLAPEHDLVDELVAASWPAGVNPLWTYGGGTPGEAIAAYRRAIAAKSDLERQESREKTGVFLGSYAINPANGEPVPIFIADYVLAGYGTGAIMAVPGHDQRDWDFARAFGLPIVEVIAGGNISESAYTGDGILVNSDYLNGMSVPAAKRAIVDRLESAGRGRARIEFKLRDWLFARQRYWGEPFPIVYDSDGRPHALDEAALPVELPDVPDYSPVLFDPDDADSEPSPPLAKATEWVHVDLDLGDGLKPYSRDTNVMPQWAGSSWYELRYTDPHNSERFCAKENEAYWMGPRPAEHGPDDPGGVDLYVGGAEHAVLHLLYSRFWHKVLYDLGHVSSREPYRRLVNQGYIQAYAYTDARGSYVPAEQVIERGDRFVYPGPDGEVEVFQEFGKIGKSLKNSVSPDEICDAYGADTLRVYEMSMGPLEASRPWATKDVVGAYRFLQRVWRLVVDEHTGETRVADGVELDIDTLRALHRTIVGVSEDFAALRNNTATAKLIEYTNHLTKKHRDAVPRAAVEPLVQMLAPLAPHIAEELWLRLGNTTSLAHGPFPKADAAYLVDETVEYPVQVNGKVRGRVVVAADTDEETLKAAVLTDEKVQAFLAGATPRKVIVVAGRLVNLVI

[3] = read-out: measured MIC (breakdown), for 1 strain (EXAMPLE 2 and EXAMPLE 4), highest MIC
[4] = read-out: measured MIC (breakdown), for 40 strains (EXAMPLE 2 and EXAMPLE 4)
[5] = strain 137, sensitive clinical isolate
[6] = strain 169, sensitive clinical isolate
[7] = strain 192, sensitive clinical isolate
[8] = strain 199, sensitive clinical isolate
[9] = strain 206, sensitive clinical isolate
[10] = strain 207, sensitive clinical isolate
[11] = strain 208, sensitive clinical isolate
[12] = strain 223, sensitive clinical isolate
[13] = strain 231, sensitive clinical isolate
[14] = strain 237, sensitive clinical isolate
[15] = strain 247, sensitive clinical isolate
[16] = strain 248, sensitive clinical isolate
[17] = strain 249, sensitive clinical isolate
[18] = strain 255, sensitive clinical isolate
[19] = strain 261, sensitive clinical isolate
[20] = strain 265, sensitive clinical isolate
[21] = strain 269, sensitive clinical isolate
[22] = strain 281, sensitive clinical isolate
[23] = strain 292, sensitive clinical isolate
[24] = strain 314, sensitive clinical isolate
[25] = strain 316, sensitive clinical isolate
[26] = strain 317, sensitive clinical isolate
[27] = strain 322, sensitive clinical isolate
[28] = strain 323, sensitive clinical isolate
[29] = strain 324, sensitive clinical isolate
[30] = strain 326, sensitive clinical isolate
[31] = strain 327, sensitive clinical isolate
[32] = strain 328, sensitive clinical isolate
[33] = strain 329, sensitive clinical isolate
[34] = strain 332, sensitive clinical isolate
[35] = strain 333, sensitive clinical isolate
[36] = strain 358, sensitive clinical isolate
[37] = Mycobacterium tuberculosis, H37RV

Cl.NC[C@H]1OB2OCCOc3ccc(Br)c1c32 [Example 2, (S)-(3-bromo-7,8-dihydro-2H-1,6,9-trioxa-9a-borabenzo[cd]azulen-2-yl)methanamine hydrochloride]
HepG2 cell 48 h Tox50 (A) (HepG2 cells): 292.4 µM
Selectivity Index (A/B) (HepG2 cells; HepG2 Tox50 (A) / Mtb H37Rv MIC (B)): 4177
MIC: P. aeruginosa PA01 (P. aeruginosa PA01): 64 µg/mL
MIC: A. baumannii ATCC 17978 (A. baumannii ATCC 17978): 64 µg/mL
MIC ([1]; for all of but 1 of the 40 clinical isolate strains tested): < 1 µM
MIC [1, 3]: 0.16 µM
MIC ([1]; read-out: measured MIC (breakdown), for 1 strain of 40 clinical isolates (EXAMPLE 2)): 0.04 µM
MIC [1, 4]: 0.08 µM
MIC [1, 5]: 0.08 µM
MIC [1, 6]: 0.08 µM
MIC [1, 7]: 0.08 µM
MIC [1, 8]: 0.08 µM
MIC [1, 9]: 0.08 µM
MIC [1, 10]: 0.08 µM
MIC [1, 11]: 0.08 µM
MIC [1, 12]: 0.08 µM
MIC [1, 13]: 0.08 µM
MIC [1, 14]: 0.08 µM
MIC [1, 15]: 0.08 µM
MIC [1, 16]: 0.08 µM
MIC [1, 17]: 0.08 µM
MIC [1, 18]: 0.08 µM
MIC [1, 19]: 0.08 µM
MIC [1, 20]: 0.08 µM
MIC [1, 21]: 0.08 µM
MIC [1, 22]: 0.08 µM
MIC [1, 23]: 0.08 µM
MIC [1, 24]: 0.08 µM
MIC [1, 25]: 0.08 µM
MIC [1, 26]: 0.08 µM
MIC [1, 27]: 0.08 µM
MIC [1, 28]: 0.08 µM
MIC [1, 29]: 0.08 µM
MIC [1, 30]: 0.08 µM
MIC [1, 31]: 0.08 µM
MIC [1, 32]: 0.08 µM
MIC [1, 33]: 0.08 µM
MIC [1, 34]: 0.08 µM
MIC [1, 35]: 0.08 µM
MIC [1, 36]: 0.08 µM
MIC: E. coli K12 tolC::Tn10 (E. coli K12 tolC::Tn10): 64 µg/mL
MIC: E. coli K12 (E. coli K12): 64 µg/mL
MIC [2, 37]: < 0.1 µM
MIC ([2]; hydrochloride): 0.07 µM

Cl.NC[C@H]1OB2OCCOc3ccc(Cl)c1c32 [Example 4, (S)-(3-chloro-7,8-dihydro-2H-1,6,9-trioxa-9a-borabenzo[cd]azulen-2-yl)methanamine hydrochloride]
pIC50 (Mtb LeuRS): 6.83
HepG2 cell 48 h Tox50 (A) (HepG2 cells): >1000 µM
MIC: P. aeruginosa PA01 (P. aeruginosa PA01): 64 µg/mL
MIC: A. baumannii ATCC 17978 (A. baumannii ATCC 17978): 64 µg/mL
MIC [1, 3]: 0.16 µM
MIC ([1]; read-out: measured MIC (breakdown), for 1 strain of 40 clinical isolates (lowest MIC, EXAMPLE 4)): ≤ 0.2 µM
MIC [1, 4]: 0.08 µM
MIC ([1]; strain 3, sensitive clinical isolate): 0.04 µM
MIC ([1]; strain 52, sensitive clinical isolate): 0.08 µM
MIC [1, 5]: 0.08 µM
MIC ([1]; strain 161, sensitive clinical isolate): 0.31 µM
MIC [1, 6]: 0.08 µM
MIC [1, 7]: 0.08 µM
MIC [1, 8]: 0.08 µM
MIC [1, 9]: 0.08 µM
MIC [1, 10]: 0.08 µM
MIC [1, 11]: 0.08 µM
MIC [1, 12]: 0.08 µM
MIC [1, 13]: 0.08 µM
MIC [1, 14]: 0.08 µM
MIC [1, 15]: 0.08 µM
MIC [1, 16]: 0.08 µM
MIC [1, 17]: 0.08 µM
MIC ([1]; strain 250, sensitive clinical isolate): 0.08 µM
MIC ([1]; strain 253, sensitive clinical isolate): 0.08 µM
MIC [1, 18]: 0.08 µM
MIC ([1]; strain 256, sensitive clinical isolate): 0.08 µM
MIC ([1]; strain 257, sensitive clinical isolate): 0.08 µM
MIC [1, 19]: 0.08 µM
MIC [1, 20]: 0.08 µM
MIC ([1]; strain 267, sensitive clinical isolate): 0.08 µM
MIC [1, 21]: 0.08 µM
MIC ([1]; strain 274, sensitive clinical isolate): 0.16 µM
MIC [1, 22]: 0.08 µM
MIC [1, 23]: 0.08 µM
MIC ([1]; strain 296, sensitive clinical isolate): 0.08 µM
MIC ([1]; strain 311, sensitive clinical isolate): 0.08 µM
MIC [1, 24]: 0.08 µM
MIC [1, 25]: 0.08 µM
MIC [1, 26]: 0.08 µM
MIC [1, 27]: 0.08 µM
MIC [1, 28]: 0.08 µM
MIC [1, 29]: 0.08 µM
MIC ([1]; strain 325, sensitive clinical isolate): 0.16 µM
MIC [1, 30]: 0.08 µM
MIC [1, 31]: 0.08 µM
MIC [1, 32]: 0.08 µM
MIC [1, 33]: 0.08 µM
MIC [1, 34]: 0.08 µM
MIC [1, 35]: 0.08 µM
MIC ([1]; strain 337, sensitive clinical isolate): 0.08 µM
MIC ([1]; strain 356, sensitive clinical isolate): 0.04 µM
MIC ([1]; strain 357, sensitive clinical isolate): 0.04 µM
MIC [1, 36]: 0.08 µM
MIC ([1]; strain 361, sensitive clinical isolate): 0.08 µM
MIC ([1]; strain 362, sensitive clinical isolate): 0.04 µM
MIC ([1]; strain 370, sensitive clinical isolate): 0.04 µM
MIC ([1]; strain 371, sensitive clinical isolate): 0.08 µM
MIC ([1]; strain 374, sensitive clinical isolate): 0.08 µM
MIC ([1]; strain 385, sensitive clinical isolate): 0.08 µM
MIC ([1]; strain 391, sensitive clinical isolate): 0.08 µM
MIC ([1]; strain 424, sensitive clinical isolate): 0.08 µM
MIC ([1]; strain 440, sensitive clinical isolate): 0.08 µM
MIC ([1]; strain 442, sensitive clinical isolate): 0.08 µM
MIC ([1]; strain 457, sensitive clinical isolate): 0.04 µM
MIC ([1]; strain 460, sensitive clinical isolate): 0.08 µM
MIC ([1]; strain 481, sensitive clinical isolate): 0.08 µM
MIC ([1]; strain 705, sensitive clinical isolate): 0.16 µM
MIC ([1]; strain 716, sensitive clinical isolate): 0.08 µM
MIC ([1]; strain 729, sensitive clinical isolate): 0.08 µM
MIC ([1]; strain 730, sensitive clinical isolate): 0.08 µM
MIC ([1]; strain 731, sensitive clinical isolate): 0.08 µM
MIC ([1]; strain 733, sensitive clinical isolate): 0.08 µM
MIC ([1]; strain 734, sensitive clinical isolate): 0.08 µM
MIC ([1]; strain 736, sensitive clinical isolate): 0.08 µM
MIC ([1]; strain 737, sensitive clinical isolate): 0.08 µM
MIC: E. coli K12 tolC::Tn10 (E. coli K12 tolC::Tn10): 64 µg/mL
MIC: E. coli K12 (E. coli K12): 64 µg/mL
MIC [2, 37]: < 0.1 µM
MIC ([2]; hydrochloride): 0.08 µM

CC1(C)COc2ccc(Br)c3c2B(OC3CN)O1.Cl (stereo not drawn) [Example 9, (3-bromo-8,8-dimethyl-7,8-dihydro-2H-1,6,9-trioxa-9a-borabenzo[cd]azulen-2-yl)methanamine hydrochloride]
HepG2 cell 48 h Tox50 (A) (HepG2 cells): >50 µM
Selectivity Index (A/B) (HepG2 cells; hydrochloride): >167
MIC: P. aeruginosa PA01 (P. aeruginosa PA01): >64 µg/mL
MIC: A. baumannii ATCC 17978 (A. baumannii ATCC 17978): >64 µg/mL
MIC: E. coli K12 tolC::Tn10 (E. coli K12 tolC::Tn10): >64 µg/mL
MIC: E. coli K12 (E. coli K12): >64 µg/mL
MIC [2, 37]: 0.3 µM

CC1(C)COc2ccc(Cl)c3c2B(OC3CN)O1.Cl (stereo not drawn) [Example 11, (3-chloro-8,8-di methyl-7,8-dihydro-2H-1,6,9-trioxa-9a-borabenzo[cd]azulen-2-yl)methanamine Hydrochloride]
HepG2 cell 48 h Tox50 (A) (HepG2 cells): >50 µM
Selectivity Index (A/B) (HepG2 cells; hydrochloride): >185
MIC: P. aeruginosa PA01 (P. aeruginosa PA01): >64 µg/mL
MIC: A. baumannii ATCC 17978 (A. baumannii ATCC 17978): >64 µg/mL
MIC: E. coli K12 tolC::Tn10 (E. coli K12 tolC::Tn10): >64 µg/mL
MIC: E. coli K12 (E. coli K12): >64 µg/mL
MIC [2, 37]: 0.27 µM
